Reference: patent publication US9012642B2, “Pyrrolopyridinone compounds and methods for treating HIV” (ViiV Healthcare UK Limited, priority 2011, dated 2015)
Read-outs that look alike come from different tables or passages of the source.

Test system: HIV
Assay: HIV MT4 Assay (antiviral HIV activity in MT-4 cells)
Assay type: cell-based
Procedure: Antiviral HIV activity and cytotoxicity values for compounds of the invention from Table 1 were measured in parallel in the HTLV-1 transformed cell line MT-4 based on the method previously described (Hazen et al., 2007, In vitro antiviral activity of the novel, tyrosyl-based human immunodeficiency virus (HIV) type 1 protease inhibitor brecanavir (GW640385) in combination with other antiretrovirals and against a panel of protease inhibitor-resistant HIV (Hazen et al., “In vitro antiviral activity of the novel, tyrosyl-based human immunodeficiency virus (HIV) type 1 protease inhibitor brecanavir (GW640385) in combination with other antiretrovirals and against a panel of protease inhibitor-resistant HIV”, Antimicrob. Agents Chemother. 2007, 51: 3147-3154; and Pauwels et al., “Sensitive and rapid assay on MT-4 cells for the detection of antiviral compounds against the AIDS virus”, (J. of Virological Methods 1987, 16: 171-185).
Luciferase activity was measured 96 hours later by adding a cell titer glo (Promega, Madison, Wis.). Percent inhibition of cell protection data was plotted relative to no compound control. Under the same condition, cytotoxicity of the compounds was determined using cell titer Glo™ (Promega, Madison, Wis.). IC50s were determined from a 10 point dose response curve using 3-4-fold serial dilution for each compound, which spans a concentration range >1000 fold.
These values are plotted against the molar compound concentrations using the standard four parameter logistic equation: y=((Vmax*x^n)/(K^n+x^n))+Y^2
Y^2=minimum y n=slope factor
Vmax=maximum y x=compound concentration [M]

[1] = Human immunodeficiency virus 1, MT4, HTLV-1 transformed cell line MT-4, luciferase activity measured 96 hours later, Table 3, read-out: HIV MT4 Assay IC50
[2] = MT4, 96 h, read-out: MT4 (IC50)

| Compound | IC50 [1] | IC50 [2] |
| --- | --- | --- |
| Cc1c(-c2c(C(OC(C)(C)C)C(=O)O)n(C)c(=O)c3c2ccn3Cc2cc(F)ccc2F)ccc2c1CCCO2 (centres unmarked) [Example 48, 2-(tert-butoxy)-2-(1-(2,5-difluorobenzyl)-6-methyl-4-(5-methylchroman-6-yl)-7-oxo-6,7-dihydro-1H-pyrrolo[2,3-c]pyridin-5-yl)acetic acid] | 30 nM | 30 nM |
| Cc1c(-c2c(C(OC(C)(C)C)C(=O)O)n(C)c(=O)c3c2cnn3Cc2ccccn2)ccc2c1CCCO2 (centres unmarked) [Example 66, 2-(tert-Butoxy)-2-(6-methyl-4-(5-methylchroman-6-yl)-7-oxo-1-(pyridin-2-ylmethyl)-6,7-dihydro-1H-pyrazolo[3,4-c]pyridin-5-yl)acetic acid] | 1360 nM | 1360 nM |
| Cn1c(C(OC(C)(C)C)C(=O)O)c(-c2ccc(Cl)cc2)c2ccn(Cc3ccc(C(F)(F)F)o3)c2c1=O (centres unmarked) [Example 9, 2-(tert-butoxy)-2-(4-(4-chlorophenyl)-6-methyl-7-oxo-1-((5-(trifluoromethyl)furan-2-yl)methyl)-6,7-dihydro-1H-pyrrolo[2,3-c]pyridin-5-yl)acetic acid] | 1250 nM | 1250 nM |
| Cn1c(C(OC(C)(C)C)C(=O)O)c(-c2ccc(Cl)cc2)c2ccn(Cc3cn4ccccc4n3)c2c1=O (centres unmarked) [Example 10, 2-(tert-butoxy)-2-(4-(4-chlorophenyl)-1-(imidazo[1,2-a]pyridin-2-ylmethyl)-6-methyl-7-oxo-6,7-dihydro-1H-pyrrolo[2,3-c]pyridin-5-yl)acetic acid] | 3000 nM | 3000 nM |
| Cc1ccc(-c2c(C(OC(C)(C)C)C(=O)O)n(C)c(=O)c3c2c2c(n3Cc3ccc(F)cc3)CCCC2)cc1 (centres unmarked) [Example 59, 2-(tert-butoxy)-2-(9-(4-fluorobenzyl)-2-methyl-1-oxo-4-(p-tolyl)-2,5,6,7,8,9-hexahydro-1H-pyrido[3,4-b]indol-3-yl)acetic acid] | 280 nM | 280 nM |
| COc1ccc(Cn2ncc3c(-c4ccc5c(c4C)CCCO5)c(C(OC(C)(C)C)C(=O)O)n(C)c(=O)c32)cc1 (centres unmarked) [Example 65] | 410 nM | 410 nM |
| Cc1c(-c2c(C(OC(C)(C)C)C(=O)O)n(C)c(=O)c3c2ccn3Cc2ccc(Cl)cc2)ccc2c1CCCO2 (centres unmarked) [Example 44, 2-(tert-butoxy)-2-(1-(4-chlorobenzyl)-6-methyl-4-(5-methylchroman-6-yl)-7-oxo-6,7-dihydro-1H-pyrrolo[2,3-c]pyridin-5-yl)acetic acid] | 50 nM | 50 nM |
| Cn1c(C(OC(C)(C)C)C(=O)O)c(-c2ccc(F)cc2)c2ccn(Cc3ccc(F)cc3)c2c1=O (centres unmarked) [Example 37, 2-(tert-butoxy)-2-(1-(4-fluorobenzyl)-4-(4-fluorophenyl)-6-methyl-7-oxo-6,7-dihydro-1H-pyrrolo[2,3-c]pyridin-5-yl)acetic acid] | 670 nM | 670 nM |
| Cc1ccc(Cn2ccc3c(-c4ccc5c(c4C)CCCO5)c(C(OC(C)(C)C)C(=O)O)n(C)c(=O)c32)cc1F (centres unmarked) [Example 49, 2-(tert-butoxy)-2-(1-(3-fluoro-4-methylbenzyl)-6-methyl-4-(5-methylchroman-6-yl)-7-oxo-6,7-dihydro-1H-pyrrolo[2,3-c]pyridin-5-yl)acetic acid] | 40 nM | 40 nM |
| Cc1ccc(-c2c(C(OC(C)(C)C)C(=O)O)n(C)c(=O)c3c2ccn3Cc2ccc3nonc3c2)cc1 (centres unmarked) [Example 20, 2-(1-(benzo[c][1,2,5]oxadiazol-5-ylmethyl)-6-methyl-7-oxo-4-(p-tolyl)-6,7-dihydro-1H-pyrrolo[2,3-c]pyridin-5-yl)-2-(tert-butoxy)acetic acid] | 160 nM | 160 nM |
| Cc1ccc(-c2c(C(OC(C)(C)C)C(=O)O)n(C)c(=O)c3c2ccn3Cc2ccc3c(c2)OCO3)cc1 (centres unmarked) [Example 33, 2-(1-(benzo[d][1,3]dioxol-5-ylmethyl)-6-methyl-7-oxo-4-(p-tolyl)-6,7-dihydro-1H-pyrrolo[2,3-c]pyridin-5-yl)-2-(tert-butoxy)acetic acid] | 210 nM | 210 nM |
| Cc1ccc(-c2c([C@H](OC(C)(C)C)C(=O)O)n(C)c(=O)c3c2ccn3Cc2ccc(F)cc2)cc1 [Example 24, (S)-2-(tert-butoxy)-2-(1-(4-fluorobenzyl)-6-methyl-7-oxo-4-(p-tolyl)-6,7-dihydro-1H-pyrrolo[2,3-c]pyridin-5-yl)acetic acid] | 40 nM | 40 nM |
| Cc1ccc(-c2c(C(OC(C)(C)C)C(=O)O)n(C)c(=O)c3c2ccn3Cc2cc(F)c(F)c(F)c2)cc1 (centres unmarked) [Example 32, 2-(tert-butoxy)-2-(6-methyl-7-oxo-4-(p-tolyl)-1-(3,4,5-trifluorobenzyl)-6,7-dihydro-1H-pyrrolo[2,3-c]pyridin-5-yl)acetic acid] | 80 nM | 80 nM |
| COc1ccc(Cn2ncc3c(-c4ccc(C)c(C)c4)c(C(OC(C)(C)C)C(=O)O)n(C)c(=O)c32)cc1 (centres unmarked) [Example 63, 2-(tert-Butoxy)-2-(4-(3,4-dimethylphenyl)-1-(4-methoxybenzyl)-6-methyl-7-oxo-6,7-dihydro-1H-pyrazolo[3,4-c]pyridin-5-yl)acetic acid] | 1200 nM | 1200 nM |
| Cc1ccc(-c2c(C(OC(C)(C)C)C(=O)O)n(C)c(=O)c3c2ccn3Cc2ccc(F)c(F)c2)cc1 (centres unmarked) [Example 28, 2-(tert-butoxy)-2-(1-(3,4-difluorobenzyl)-6-methyl-7-oxo-4-(p-tolyl)-6,7-dihydro-1H-pyrrolo[2,3-c]pyridin-5-yl)acetic acid] | 80 nM | 80 nM |
| COc1ccc(Cn2ccc3c(-c4ccc5c(c4C)CCCO5)c(C(OC(C)(C)C)C(=O)O)n(C)c(=O)c32)cc1 (atropisomer, axis not shown; (M)) [Example 53, (S)(M)-2-(tert-butoxy)-2-(1-(4-methoxybenzyl)-6-methyl-4-(5-methylchroman-6-yl)-7-oxo-6,7-dihydro-1H-pyrrolo[2,3-c]pyridin-5-yl)acetic acid] | 10 nM | 10 nM |
